Test results taken from article PMC8198792, “Prediction of Anticancer Peptides with High Efficacy and Low Toxicity by Hybrid Model Based on 3D Structure of Peptides” (International Journal of Molecular Sciences, 2021).
Bridge positions count the residues as written; N and C are the ends. Peptide text beside a SMILES is read from it.

Columns and labels:
[1] = test system: 2% sheep red blood cells (SRBC); experiment: Hemolysis assay; format: cell-based
Method: The 2% sheep red blood cells (SRBC) were purchased from Nanjing Senbeijia Biological Technology Co., Ltd (Nangjing, China). A total of 4 mL of 2% SRBC was taken, rinsed twice with 4 mL of PBS by centrifugation for 5 min at 3000 rpm and the precipitates were resuspended in 4 mL of PBS. We added 100 μL of 2% SRBC to each well of the 96-well plate and then added 100 μL peptide solutions of different concentrations (2, 4, 8, 16, 32, 64, 128 and 256 μM) in triplicate at 37 °C for 1 h. 100 μL of PBS buffer and 100 uL of Triton X-100 0.1% (w/v) were mixed with SRBC as negative and positive controls, respectively. All samples were centrifuged at 3000 rpm for 5 min, 100 μL supernatant was collected and transferred to a new 96-well plate, and its absorbance was measured at 540 nm. The calculation formula of hemolysis rate is as follows. (5) % Hemolysis=absorbancesample-absorbancenegative/absorbancepositive-absorbancenegative×100

[2] = test system: human embryonic kidney cells (293T); experiment: MTT assay on non-cancerous cells, 293T; format: cell-based
From the text: (§1) Five peptides were randomly selected from the candidate ACPs and synthesized by Changzhou Kanglong Biotech Ltd (Changzhou, China). using 9-fuorenylmethoxy carbonyl (FMOC) solid phase synthesis technology. The synthetic peptide was identified by mass spectrometry (MS), and the purity >95% by high performance liquid chromatography (HPLC). Human breast cancer cell line (MCF7), lung cancer cell line (A549), cervical cancer cell line (HeLa), colorectal adenocarcinoma cell line (LoVo) and human embryonic kidney cells (293T) were preserved in our laboratory. At 37 °C under 5/95% CO2/air condition, all cell lines were cultured in Dulbecco’s modified Eagle medium (DMEM) supplemented with 10% (v/v) fetal bovine serum (FBS, Gibco, Carlsbad, CA, USA) and 1% (v/v) penicillin/streptomycin (Sangon Biotech, Shanghai, China).
(§2) Human tumor cell lines MCF7, A549, HeLa and LoVo were used as experimental materials to detect the anticancer activity of peptides by MTT assay. In addition, human embryonic kidney cells 293T were also included in the experiment to examine the safety of the peptide against non-cancerous cells. […] Untreated cells as negative control group incubated with corresponding medium for 24 h. Subsequently, 10 uL, 5 mg/mL MTT (Sangon Biotech, Shanghai, China) solution was added to each well and incubated for 4 h at 37 °C. After the medium was discarded, 150 μL DMSO was added to each well for 10 min to dissolve formazan crystals. Absorbance was measured at 570 and 630 nm using a multiwall plate reader and the inhibition rate was expressed as the mean ± standard deviation (SD) of the triplicate data.

[3] = test system: Human breast cancer cell line (MCF7); format: cell-based; conditions: MTT assay, 6000 cells per well, peptides 0.5-128 μM for 24 h, triplicate, absorbance 570 and 630 nm; read-out: IC50 (μM) MCF7
From the text: as §1, §2

[4] = test system: lung cancer cell line (A549); format: cell-based, human
From the text: as §1, §2

[5] = test system: cervical cancer cell line (HeLa); format: cell-based, human; conditions: MTT assay, 6000 cells per well, peptides 0.5-128 μM for 24 h, triplicate, absorbance 570 and 630 nm; read-out: IC50 (μM) HeLa
From the text: as §1, §2

[6] = test system: colorectal adenocarcinoma cell line (LoVo); format: cell-based, human; conditions: MTT assay, 6000 cells per well, peptides 0.5-128 μM for 24 h, triplicate, absorbance 570 and 630 nm; read-out: IC50 (μM) LoVo
From the text: as §1, §2

**Q.** For `CC[C@H](C)[C@H](NC(=O)[C@H](CC(C)C)NC(=O)[C@H](CC(C)C)NC(=O)[C@H](CC(=O)O)NC(=O)[C@H](CCCCN)NC(=O)[C@@H](NC(=O)[C@H](C)NC(=O)CNC(=O)[C@H](CC(C)C)NC(=O)[C@@H](NC(=O)CN)C(C)C)C(C)C)C(=O)NCC(=O)N[C@@H](C)C(=O)NCC(=O)N[C@@H](CCCCN)C(=O)N[C@@H](CO)C(=O)N[C@@H](C)C(=O)N[C@@H](C)C(=O)N[C@@H](CCC(N)=O)C(=O)N[C@@H](CO)C(=O)N[C@H](C(=O)N[C@@H](CC(C)C)C(=O)N[C@@H](CCCCN)C(=O)N[C@H](C(=O)N[C@@H](CC(C)C)C(=O)N[C@@H](CO)C(=O)N[C@H]1CSSC[C@@H](C(=O)O)NC(=O)[C@H](CC(=O)O)NC(=O)[C@H](CC(N)=O)NC(=O)[C@H](CO)NC(=O)[C@H](CC(C)C)NC(=O)[C@H](CCCCN)NC1=O)[C@@H](C)O)C(C)C` [Odorranain-C1] (H-GVLGAVKDLLIGAGKSAAQSVLKTLSCKLSNDC-OH; disulfide 27-33), which “hemolysis (in words)” value ([1]; hemolytic rate of 100 μM peptides more than 10% as the classification standard, 2% sheep erythrocytes) is on record?
**A.** no hemolysis

**Q.** What about the “Hemolytic effect on 2% sheep erythrocytes, peptide concentration 2 μM” value ([1]; peptide 2 μM, 2% SRBC in PBS, 37 °C, 1 h, absorbance 540 nm, triplicate) of the same molecule?
**A.** − (The “−” symbol indicates the hemolysis rate of less than 10% at peptides concentration of 100 μM)

**Q.** And the “Hemolytic effect on 2% sheep erythrocytes, peptide concentration 4 μM” value ([1]; peptide 4 μM, 2% SRBC in PBS, 37 °C, 1 h, absorbance 540 nm, triplicate)?
**A.** − (The “−” symbol indicates the hemolysis rate of less than 10% at peptides concentration of 100 μM)

**Q.** And the “Hemolytic effect on 2% sheep erythrocytes, peptide concentration 8 μM” value ([1]; peptide 8 μM, 2% SRBC in PBS, 37 °C, 1 h, absorbance 540 nm, triplicate)?
**A.** − (The “−” symbol indicates the hemolysis rate of less than 10% at peptides concentration of 100 μM)

**Q.** What about the “Hemolytic effect on 2% sheep erythrocytes, peptide concentration 16 μM” value ([1]; peptide 16 μM, 2% SRBC in PBS, 37 °C, 1 h, absorbance 540 nm, triplicate) of the same molecule?
**A.** − (The “−” symbol indicates the hemolysis rate of less than 10% at peptides concentration of 100 μM)

**Q.** What about the “Hemolytic effect on 2% sheep erythrocytes, peptide concentration 32 μM” value ([1]; peptide 32 μM, 2% SRBC in PBS, 37 °C, 1 h, absorbance 540 nm, triplicate) of the same molecule?
**A.** − (The “−” symbol indicates the hemolysis rate of less than 10% at peptides concentration of 100 μM)

**Q.** What about the “Hemolytic effect on 2% sheep erythrocytes, peptide concentration 64 μM” value ([1]; peptide 64 μM, 2% SRBC in PBS, 37 °C, 1 h, absorbance 540 nm, triplicate) of the same molecule?
**A.** − (The “−” symbol indicates the hemolysis rate of less than 10% at peptides concentration of 100 μM)

**Q.** What about the “Hemolytic effect on 2% sheep erythrocytes, peptide concentration 128 μM” value ([1]; peptide 128 μM, 2% SRBC in PBS, 37 °C, 1 h, absorbance 540 nm, triplicate) of the same molecule?
**A.** − (The “−” symbol indicates the hemolysis rate of less than 10% at peptides concentration of 100 μM)

**Q.** And the “Hemolytic effect on 2% sheep erythrocytes, peptide concentration 256 μM” value ([1]; peptide 256 μM, 2% SRBC in PBS, 37 °C, 1 h, absorbance 540 nm, triplicate)?
**A.** − (The “−” symbol indicates the hemolysis rate of less than 10% at peptides concentration of 100 μM)

**Q.** And the “toxicity to 293T cells (in words)” value ([2]; low toxicity when the IC50 value exceeded 50 μM, MTT, 24 h)?
**A.** certain toxicity

**Q.** What about the IC50 ([2]; non-cancerous cells, MTT assay, 6000 cells per well, peptides 0.5-128 μM for 24 h, triplicate, absorbance 570 and 630 nm, read-out: IC50 (μM) 293T) of the same molecule?
**A.** 48.7 µM

**Q.** And the IC50 [3]?
**A.** 41.2 µM

**Q.** What about the IC50 ([4]; MTT assay, 6000 cells per well, peptides 0.5-128 μM for 24 h, triplicate, absorbance 570 and 630 nm, read-out: IC50 (μM) A549) of the same molecule?
**A.** 27.3 µM

**Q.** And the “killing effects on lung cancer cell A549 (in words)” value ([4]; MTT, 24 h, anticancer activity when IC50 less than 50 μM)?
**A.** effective killing effects

**Q.** What about the IC50 [5] of the same molecule?
**A.** 52.8 µM

**Q.** What about the IC50 [6] of the same molecule?
**A.** 55.2 µM
